The values that follow come from ChEMBL document CHEMBL4665710, “Myrcaulones A-C, Unusual Rearranged Triketone-Terpene Adducts from Myrciariacauliflora” (J Nat Prod, 2020).

Series [1] deals with RAW264.7. Nature of the series: Anti-inflammatory activity in mouse RAW 264.7 cells assessed as reduction in LPS-induced TNF-alpha production preincubated for 2 hrs followed by LPS-stimulation measured after 24 hrs by ELISA. The settings on record: time 26.0 hrs. Format: functional, cell-based. Background: An ELISA detects its analyte on a solid surface through an enzyme-linked reagent.

For series [2], the system named is RAW264.7. In words: Anti-inflammatory activity in mouse RAW 264.7 cells assessed as reduction in LPS-induced nitric oxide production preincubated for 2 hrs followed by LPS-stimulation measured after 24 hrs by Griess reagent method. The settings on record: time 26.0 hrs. The class given is functional, cell-based.
For series [3], the system named is RAW264.7. In words: Anti-inflammatory activity in mouse RAW 264.7 cells assessed as reduction in LPS-induced TNF-alpha production at 7 uM preincubated for 2 hrs followed by LPS-stimulation measured after 24 hrs by ELISA. The class given is functional, cell-based. The following applies: time 26.0 hrs.
Series [4] relates to RAW264.7. In words: Anti-inflammatory activity in mouse RAW 264.7 cells assessed as reduction in LPS-induced nitric oxide production at 7 uM preincubated for 2 hrs followed by LPS-stimulation measured after 24 hrs by Griess reagent method. The following applies: time 26.0 hrs. The class given is functional, cell-based. In general terms: The Griess reaction detects nitrite, a stable product of nitric oxide.

In series [5] the test system is RAW264.7. In words: Cytotoxicity against mouse RAW 264.7 cells assessed as reduction in cell viability by MTT assay. The class given is cell-based. A general note: Formazan colour is commonly taken as a measure of viable cells.

Active and inactive are the calls of the source. No cut-off for these calls is given here.

For the compound `CC[C@H](C)[C@H]1C[C@@]2(CC[C@H]3C[C@@H]2C3(C)C)OC2=C1C(=O)[C@](OC)(C(C)=O)C2`, the Activity result in the series on RAW264.7 [1] was “Dose-dependent effect”; in the series with RAW264.7 [2] it was “Dose-dependent effect”; in the series on RAW264.7 [5] it was “Non-Toxic”. Besides, the result with RAW264.7 [3] and in the series on RAW264.7 [4] was Active.

Turning to `CO[C@@]1(C(C)=O)CC2=C(C1=O)[C@H](C(C)C)C[C@@]1(CC[C@H]3C[C@@H]1C3(C)C)O2`, the figures for the Activity entry in the series on RAW264.7 [1], in the series with RAW264.7 [2] and with RAW264.7 [5] were “Dose-dependent effect”, “Dose-dependent effect” and “Non-Toxic”, respectively. The outcome in the series on RAW264.7 [3] and in the series on RAW264.7 [4] was Active.
